Measurements taken from patent publication US5393744A, “Glucosyl phosphotriesters of thymidine” (Institut Pasteur, priority 1988, dated 1995).

What was measured:
Type in all cases: cell-based
[1] = test system: recombinant retrovirus of murine origin (MoMLV); test: Residual virus (clones of βgal+ cells) after infection of mouse 3T3 test cells with LacZ recombinant MoMLV retrovirus; conditions: 3T3 cells; for residual virus (% not inhibited) at 10 µM: 10^-5 M; for residual virus (% not inhibited) at 1 µM: 10^-6 M
Protocol: The virus used is a recombinant retrovirus of murine origin (MoMLV) in which a reporter gene (LacZ) has been introduced.
Fixed amounts of LacZ recombinant retroviruses are placed in the presence of mouse infectable test cells (3T3) with or without the product to be tested. To each recombinant retrovirus corresponds a clone of β gal^+ cells. The number of clones of βgal^+ cells is read 48 hours after the infection. The % of the residual virus (not inhibited by the product) is indicated in the following table (mean of several independent experiments): […]

human T lymphocytes = test: Cytotoxicity of the products for human T lymphocytes
Protocol: Each product was dissolved in DMSO at a concentration of 10^-3 M (stock solution), then in the culture medium immediately before use. The solution thus obtained was sterilized by filtration on a 0.22μ Millipore, then successive dilutions were made in the culture medium.
The cultures of human T lymphocytes are maintained in the medium RPMI 1640 containing 10% fetal calf serum (Seromeal), 1% of glummine (Gibco), 1% of antibiotics (PSN, Gibco), 10% of interleukin II (Biotest), 2 μg/ml of polybrene (Sigma) and a 1/2500 dilution of α-human semm-interferon. This medium is called complete medium.
The cytotoxicity of the products was studied on human T lymphocytes obtained from peripheral blood of a sero-negative donor. Prior to the treatment, these lymphocytes are stimulated by phytohemagglutinin p (pHAp) (Difco) for 3 days.
a) Study of the cytotoxicity of the products for the T cells.
10^6 lymphocytes stimulated by pHAp were treated for 10 days by increasing doses of the product (10^-5 M; 5×10^-6 M; 10^-6 M). The product was added at each cell passage carried out every 3 or 4 days. At each passage, the cells were counted after staining with trypan blue then resuspended at 10^6 cells per ml in the complete medium containing or not increasing doses of the product. This experiment was carried out in a plate with 24 wells (Munc).

HIV-1 virus [2] = test: Replication of HIV-1 in macrophages of sero-negative donors, continuous culture (reverse transcriptase activity)
Protocol: (§1) The drugs 6651, AZT, 6714 and ddT were diluted in DMSO.
(§2) The virus HIV-1 utilized is derived from a culture supernatant of CEM-LAV 1 cells; these latter are maintained by the addition at each passage (every 3 or 4 days) of uninfected CEM cells. The titre of the virus in the clarified culture supernatant is higher than 10^6 cpm/ml in reverse transcriptase activity and 10^3 infectious units/ml on lymphocytes of sero-negative donors.
(§3) The macrophages were obtained from a deleucocytation pocket. The mononucleated cells were separated on a Ficoll^R gradient. The cells were adjusted to 50.10^6 cells/ml in the RPMI 1640 medium (MBA) containing 20% fetal calf serum (Flow), 10 mM Hepes (Sigma), 1% of PSN and 1% of glutamine (Gibco). After 1 h of incubation at 4° C. with gentle shaking, the macrophages agglutinate among themselves. The agglutinated macrophages are sedimented for 15 mn at 4° C. The supernatant containing an enrichment in lymphocytes was removed and the pellet enriched in macrophages was diluted to 5.10^6 cells/ml in the medium previously described. The cell suspension was then placed in Petri dishes of 60 mm diameter and placed at 37° C. for 1 h 30. The unattached cells are removed and the washed cell carpet was then detached with a scraper. The cells thus recovered were used directly for the study.
(§4) For this study, the production of HIV-1 virus by infected macrophages in the presence or absence of the drugs 6714 or ddT and 6651 or AZT were monitored either in continuous culture for at least 30 days or after lysis of the macrophages at day +14 and infection of lymphocytes by this lysate.
For each test, 15.10^6 cells were or were not infected with the HIV-1 virus (6000 cpm/10^6 cells). After 1 h of absorption at 37° C., the cells were placed in 6-wells Costar plates and 5.10^-5 M or 10^-5 M of the drugs 6714 and ddT and 10^-5 M, 10^-6 M or 10^-7 M of the drugs 6651 and AZT were added to the culture medium. The medium was changed every 3 or 4 days and the reverse transcriptase activity was determined in the culture supernatant. The drugs were added at each passage to the culture medium at the respective concentrations indicated above.
(§5) 3) Measurement of the reverse transcriptase activity
(§6) The reverse transcriptase activity is assayed starting from 1 ml of culture supernatant concentrated 100 times by ultra-centrifugation for 5 mn at 95.000 rpm (Rotor TL 100^R Beckman).
(§7) The pellet is resuspended in 10 μl of NTE Triton^R ×100 0.1%.
(§8) After 1 h at 37° C., the acid-insoluble products are precipitated by 20% trichloroacetic acid, filtered onto 0.45μ Millipore^R and the B radioactivity is measured with the aid of a Kontron scintillation counter.

HIV-1 virus [3] = test: Infection of activated lymphocytes by the lysates of infected macrophages (co-culture, reverse transcriptase activity)
Protocol: as §1, §2
The lymphocytes were isolated from the peripheral blood of sero-negative donors on a Ficoll^R gradient (MSL, Eurobio). The lymphocytes thus obtained were stimulated with the phytohemaglutinin p(PHA-p) for 3 days before their utilization.
The lymphocytes are cultivated in RPMI 1640 medium, supplemented with 10% of fetal calf serum, 10% of interleukin 2, 2 μg/ml of polybrene, 1% of glutamine, 1% of antibiotics.
as §3, §4
The quantity of cells placed in culture and the conditions of infection are identical with those previously described.
At day 14 after infection, the macrophages were lysed by two successive freezings to -20° C. and thawings at 37° C. The lysate recovered was then utilized as inoculum to infect 3.10^6 activated lymphocytes derived from a sero-negative donor. After 1 h of absorption, the lymphocytes were adjusted to 10^6 cells per ml and the drugs were added at the concentrations corresponding to those of the lysate.
The lymphocytes were subcultured every 3 or 4 days and an assay of the reverse transcriptase was carried out starting from the culture supernatant at each passage.
as §5, §6, §7, §8

[4] = NIH3T3, 48 hours after infection, mean of several experiments, read-out: % of the residual virus (not inhibited by the product)

CCCCCCCCCCCCCCCCOP(=O)(OC[C@H]1OC(O)[C@H](O)[C@@H](O)[C@@H]1O)OC[C@H]1O[C@@H](n2cc(C)c(=O)[nH]c2=O)C[C@@H]1N=[N+]=[N-] (stereo partly drawn) [compound 6651, 6-glucosyl hexadecyl 5'-(3'-azido) thymidinyl phosphate]
residual virus (% not inhibited) at 100 µM ([1]; NIH3T3, 10^-4 M, 48 hours after infection, mean of several experiments, read-out: % of the residual virus (not inhibited by the product)): 11%
residual virus (% not inhibited) at 10 µM [1, 4]: 65%
residual virus (% not inhibited) at 1 µM [1, 4]: 94%
effect on the growth of T cells (human T lymphocytes; treatment of 10 days, at the doses used (FIG. 1)): without significant effect on the growth of T cells
proliferation of the HIV-1 virus in the macrophages (HIV-1 virus [2]; 10^-5 M, 10^-6 M and 10^-7 M): block the proliferation of the HIV-1 virus in the macrophages
viral production on the lymphocytes with the lysates of treated macrophages (HIV-1 virus [3]; 10^-5 M and 10^-6 M (FIG. 4c)): no viral production is obtained on the lymphocytes
multiplication of the HIV-1 virus at the interior of the macrophage (HIV-1 virus [3]; 10^-5 M and 10^-6 M, same result as AZT (no multiplication)): this same result is obtained
multiplication of the HIV-1 virus in the macrophages (HIV-1 virus [3]; 10^-7 M): there is multiplication of the HIV-1 virus in the macrophages, but the escape of the virus seems to be blocked
viral production on the lymphocytes with the lysates of treated macrophages (HIV-1 virus [3]; 10^-7 M (FIG. 4c)): A low viral production is observed

Cc1cn([C@H]2CC[C@@H](COP(=O)(O)OC[C@H]3OC(O)[C@H](O)[C@@H](O)[C@@H]3O)O2)c(=O)[nH]c1=O (stereo partly drawn) [compound 6714, 6-glucosyl 5'-(3'-deoxy)-thymidinyl phosphate]
residual virus (% not inhibited) at 10 µM [1, 4]: 4%
residual virus (% not inhibited) at 1 µM [1, 4]: 12%
residual virus (% not inhibited) at 0.1 µM ([1]; NIH3T3, 10^-7 M, 48 hours after infection, mean of several experiments, read-out: % of the residual virus (not inhibited by the product)): 66%
retroviral activity (in words) ([1]; recombinant MoMLV): active by themselves
effect on cell multiplication (human T lymphocytes; same doses, 3 days): no effect is observed on cell multiplication
proliferation of the HIV-1 virus in the macrophages (HIV-1 virus [2]; 5.10^-5 M and 10^-5 M): block the proliferation of the HIV-1 virus in the macrophages
viral production by activated lymphocytes with lysates of infected treated macrophages (general statement) (HIV-1 virus [3]; lysate at day 14): make it possible to obtain a vital production by activated lymphocytes
viral production by activated lymphocytes, compared to untreated lysate (HIV-1 virus [3]; whatever the concentration tested (5.10^-5 M, 10^-5 M)): comparable to the untreated lysate
multiplication of the HIV-1 virus in the macrophages (HIV-1 virus [3]; whatever the concentration tested, 5.10^-6 M or 10^-5 M): there is multiplication of the HIV-1 virus in the macrophages, but the escape of the virus seems to be blocked
